The compounds below were run on α2δ subunit (assay: radioligand binding assay using [3H]gabapentin and the α2δ subunit). Conditions: [3H]gabapentin radioligand; α2δ subunit derived from porcine brain tissue.
Excerpt: The biological activity of the compounds of the invention may be measured in a radioligand binding assay using [^3H]gabapentin and the α2δ subunit derived from porcine brain tissue (Gee N. S., Brown J. P., Dissanayake V. U. K., Offord J., Thurlow R., Woodruff G. N., J. Biol. Chem., 1996;271:[…]). Results may be expressed in terms of μM or nM α2δ binding affinity.

Row | Activity (binding affinity) | SMILES
1 | 507 nM | O=C(O)CNCCSCc1ccc(Cl)cc1 [Example 10, ({2-[(4-Chlorobenzyl)sulfanyl]ethyl}amino)acetic acid]
2 | 71 nM | O=C(O)CNCCSc1ccc2ccncc2c1 [Example 11, {[2-(7-Isoquinolinylsulfanyl)ethyl]amino}acetic acid]
3 | 5406 nM | CCOC(=O)CNCCSc1ccc(Cl)cc1 [Example 12, Ethyl ({2-[(4-chlorophenyl)sulfanyl]ethyl}amino)acetate]

Further lines, the compound ahead of its results:

Row | SMILES | Activity (binding affinity)
4 | O=C(O)CNCCSc1ccc(Cl)cc1 [Example 6, ({2-[(4-Chlorophenyl)sulfanyl]ethyl}amino)acetic acid] | 198 nM
5 | O=C(O)CNCCOc1ccc(Cl)cc1Cl [Example 9, {[2-(2,4-Dichlorophenoxy)ethyl]amino}acetic acid] | 1665 nM
6 | NCc1ccc(SCCNCC(=O)O)cc1 [Example 8, [(2-{[4-(Aminomethyl)phenyl]sulfanyl}ethyl)amino]acetic acid] | 987 nM
